In US20100137161A1, “METHOD OF GENERATING A PLATELET […] FOR AN INDIVIDUAL” (ROYAL COLLEGE OF SURGEONS IN IRELAND, priority 2006, published 2010):

Tested on: platelet rich plasma (PRP)
Test: 96 well plate light transmission platelet aggregation assay, dose response to multiple agonists
Format: cell-based
Conditions: for platelet reactivity induced by the agonist (dose response curve): PRP of an inflamed rheumatoid arthritis patient, compared to the normal population (n=50), FIG. 3
Description: Healthy subjects who had not taken any antiplatelet medication in the 14 days prior to the study were recruited. Subjects refrained from intensive exercise and tobacco use for 4 hours prior to early morning phlebotomy. Blood was drawn from the antecubital fossa. The first 5 ml taken was discarded to avoid unwanted platelet activation and the next 27 ml of blood was collected in 3 ml of 3.2% sodium citrate anticoagulant. This blood citrate mixture was then centrifuged at 150 g for 10 min to recover the supernatant platelet rich plasma (PRP). The platelet concentration was measured using a Sysmex KX 21N.
A 96 well black isoplate with clear bottoms was used. Agonists were arranged in rows of Row 1—Arachidonic Acid (AA), Row 2—Collagen, Row 3—ADP, Row 4—Epinephrine, Row 5—Thrombin related activated peptide (TRAP) and Row 6 as a control row containing 4 wells of PRP and 4 wells of Platelet Poor Plasma (PPP). The remaining 6 rows maybe used for additional agonists or specific peptides as required.
Buffer A (6 mM Dextrose, 130 mM NaCl, 9 mM NaHCO3, 10 mM trisodium citrate, 10 mM Tris Base, 3 mM KCl, 0.81 mM KH2PO4, and 0.9 mM MgCl26H2O [pH7.4]) was added to wells 2-8 on each row using a 12 channel pipette. Row 1—10 μl of buffer A was inserted into well 2. Then 20 μl of buffer A was added to each of the wells 3-8 inclusive. Then 50 μl of AA (500 mg/ml stock) was inserted into well 1. 30 μl of AA was removed from well 1 and mixed with buffer A in well 2. 20 μl of the AA/buffer A was removed from well 2 and mixed in well 3. 20 μl is then removed from well 3 and mixed in well 4. This is repeated throughout the row up to and including well 8 with 20 μl left over and discarded. Row 2—Collagen (1.9 mg.ml stock) same process as Row 1. Row 3 & 5 ADP (Row 3) and TRAP (Row 5), wells 2-8 had 20 μl of buffer A placed into each. A quantity of 40 μl of ADP (200 μM stock) was placed into well 1. 20 μl of agonist was removed from well 1 and placed into well 2 where it was then mixed thoroughly with buffer A. This same process was then repeated across the plate with 20 μl left over after well 8. This was then discarded. The same process is repeated for Row 5—TRAP (200 μM stock). […]
The plate is then placed into a Wallac Victor 3 plate reader. The plate is read at time zero (T0) at absorbance 572 nm. […] T3 (3 minutes) read is taken and then shaking recommences until T9 (9 minutes) read. Further reads are taken at T15 (15 minutes) and T18 (18 minutes) with shaking in between each time-point. […]
The data is then normalised from the PPP and PRP absorbance values which represent minimum and maximum aggregation. […]

| Compound | platelet reactivity induced by the agonist (dose response curve) | inhibition of the COX pathway, arachidonic acid dose response curve (same male, visit 2, 4 weeks later, aspirin (soluble) 150 mg with clopidogrel 75 mg once daily, FIG. 7) |
| --- | --- | --- |
| Nc1ncnc2c1ncn2[C@@H]1O[C@H](COP(=O)(O)OP(=O)(O)O)[C@@H](O)[C@H]1O [ADP] | excessive platelet reactivity | – |
| CCCCC/C=C\C/C=C\C/C=C\C/C=C\CCCC(=O)O [Arachidonic Acid] | excessive platelet reactivity | – |
| CNC[C@H](O)c1ccc(O)c(O)c1 [Epinephrine] | excessive platelet reactivity | – |
| CC(=O)Oc1ccccc1C(=O)O [aspirin (soluble), aspirin] | – | clearly inhibited |
